Measured values: PubChem BioAssay AID1259407 (Chemical Carcinogenesis Research Information System (CCRIS), 2018)
Activity calls are given as the source filed them. No rule for the calls is given here.

Test system: CCRIS mutagenicity, Ames/micronucleus/aberration tests
Assay: CCRIS mutagenicity studies
[1] = Test System: AMES SALMONELLA TYPHIMURIUM, Strain/Indicator: TA98, Metabolic Activation: NONE, Method: PREINCUBATION
[2] = Test System: AMES SALMONELLA TYPHIMURIUM, Strain/Indicator: TA100, Metabolic Activation: NONE, Method: PREINCUBATION
[3] = Test System: AMES SALMONELLA TYPHIMURIUM, Strain/Indicator: TA1535, Metabolic Activation: NONE, Method: PREINCUBATION
[4] = Test System: AMES SALMONELLA TYPHIMURIUM, Strain/Indicator: TA1537, Metabolic Activation: NONE, Method: PREINCUBATION
[5] = Test System: AMES SALMONELLA TYPHIMURIUM, Strain/Indicator: TA100, Metabolic Activation: NONE, Method: STANDARD PLATE

In the case of `C[C@@H]1[C@H](O)[C@@H](C)/C=C/C=C/C=C/C=C/C=C/C=C/C=C/[C@H](O[C@@H]2O[C@H](C)[C@@H](O)[C@H](N)[C@@H]2O)C[C@@H]2O[C@](O)(C[C@@H](O)C[C@@H](O)[C@H](O)CC[C@@H](O)C[C@@H](O)CC(=O)O[C@H]1C)C[C@H](O)[C@H]2C(=O)O`, the mutagenic call (End Point: IN VITRO CHROMOSOMAL ABERRATIONS, Test System: CHO-LB CELLS, Metabolic Activation: NONE) is reported as “inactive; negative”, the mutagenic call (End Point: IN VITRO CHROMOSOMAL ABERRATIONS, Test System: CHO-LB CELLS, Metabolic Activation: RAT, LIVER, S-9, AROCLOR 1254) is reported as “inactive; negative” and the mutagenic call (Test System: AMES SALMONELLA TYPHIMURIUM, Strain/Indicator: TA97, Metabolic Activation: HAMSTER, LIVER, S-9, AROCLOR 1254 (10 OR 30%), Method: PREINCUBATION) is reported as “inactive; negative”. For the same molecule, the mutagenic call (Test System: AMES SALMONELLA TYPHIMURIUM, Strain/Indicator: TA97, Metabolic Activation: NONE, Method: PREINCUBATION) was “inactive; negative”, the mutagenic call (Test System: AMES SALMONELLA TYPHIMURIUM, Strain/Indicator: TA97, Metabolic Activation: RAT, LIVER, S-9, AROCLOR 1254 (10 OR 30%), Method: PREINCUBATION) was “inactive; negative” and the mutagenic call (Test System: AMES SALMONELLA TYPHIMURIUM, Strain/Indicator: TA98, Metabolic Activation: HAMSTER, LIVER, S-9, AROCLOR 1254 (10 OR 30%), Method: PREINCUBATION) was “inactive; negative”. The mutagenic call [1] was “inactive; negative”, the mutagenic call (Test System: AMES SALMONELLA TYPHIMURIUM, Strain/Indicator: TA98, Metabolic Activation: RAT, LIVER, S-9, AROCLOR 1254 (10 OR 30%), Method: PREINCUBATION) was “inactive; negative” and the mutagenic call (Test System: AMES SALMONELLA TYPHIMURIUM, Strain/Indicator: TA100, Metabolic Activation: HAMSTER, LIVER, S-9, AROCLOR 1254 (10 OR 30%), Method: PREINCUBATION) was “inactive; negative”. The mutagenic call [2] was “inactive; negative”, the mutagenic call (Test System: AMES SALMONELLA TYPHIMURIUM, Strain/Indicator: TA100, Metabolic Activation: RAT, LIVER, S-9, AROCLOR 1254 (10 OR 30%), Method: PREINCUBATION) was “inactive; negative” and the mutagenic call (Test System: AMES SALMONELLA TYPHIMURIUM, Strain/Indicator: TA1535, Metabolic Activation: HAMSTER, LIVER, S-9, AROCLOR 1254 (10 OR 30%), Method: PREINCUBATION) was “inactive; negative”. For the same molecule, the mutagenic call [3] was “inactive; negative”, the mutagenic call (Test System: AMES SALMONELLA TYPHIMURIUM, Strain/Indicator: TA1535, Metabolic Activation: RAT, LIVER, S-9, AROCLOR 1254 (10 OR 30%), Method: PREINCUBATION) was “inactive; negative” and the mutagenic call (Test System: AMES SALMONELLA TYPHIMURIUM, Strain/Indicator: TA1537, Metabolic Activation: HAMSTER, LIVER, S-9, AROCLOR 1254 (30%), Method: PREINCUBATION) was “inactive; negative”. For the same molecule, the mutagenic call [4] was “inactive; negative” and the mutagenic call (Test System: AMES SALMONELLA TYPHIMURIUM, Strain/Indicator: TA1537, Metabolic Activation: RAT, LIVER, S-9, AROCLOR 1254 (30%), Method: PREINCUBATION) was “inactive; negative”.

`CNCc1ccc(CSCCNC(=NCC(O)c2ccc(O)cc2)NS(C)(=O)=O)o1` (stereo not drawn) was tested, and the mutagenic call [1] was “inactive; negative”, the mutagenic call (Test System: AMES SALMONELLA TYPHIMURIUM, Strain/Indicator: TA98, Metabolic Activation: RAT LIVER S-9, PHENOBARBITAL AND 5,6-BENZOFLAVONE, Method: PREINCUBATION) was “inactive; negative” and the mutagenic call [2] was “inactive; negative”. For the same molecule, the mutagenic call (Test System: AMES SALMONELLA TYPHIMURIUM, Strain/Indicator: TA100, Metabolic Activation: RAT LIVER S-9, PHENOBARBITAL AND 5,6-BENZOFLAVONE, Method: PREINCUBATION) was “inactive; negative”, the mutagenic call [3] was “inactive; negative” and the mutagenic call (Test System: AMES SALMONELLA TYPHIMURIUM, Strain/Indicator: TA1535, Metabolic Activation: RAT LIVER S-9, PHENOBARBITAL AND 5,6-BENZOFLAVONE, Method: PREINCUBATION) was “inactive; negative”. The mutagenic call [4] was “inactive; negative”, the mutagenic call (Test System: AMES SALMONELLA TYPHIMURIUM, Strain/Indicator: TA1537, Metabolic Activation: RAT LIVER S-9, PHENOBARBITAL AND 5,6-BENZOFLAVONE, Method: PREINCUBATION) was “inactive; negative” and the mutagenic call (Test System: E.COLI, Strain/Indicator: WP2 UVRA, Metabolic Activation: NONE, Method: PREINCUBATION) was “inactive; negative”. For the same molecule, the mutagenic call (Test System: E.COLI, Strain/Indicator: WP2 UVRA, Metabolic Activation: RAT LIVER S-9, PHENOBARBITAL AND 5,6-BENZOFLAVONE, Method: PREINCUBATION) was “inactive; negative”.

With `CC(C)NCC(O)COc1cccc2[nH]c3ccccc3c12` (stereo not drawn) the mutagenic call (Test System: AMES SALMONELLA TYPHIMURIUM, Strain/Indicator: TA98, Metabolic Activation: NONE, Method: STANDARD PLATE) was “inactive; negative”, the mutagenic call (Test System: AMES SALMONELLA TYPHIMURIUM, Strain/Indicator: TA98, Metabolic Activation: RAT, LIVER, S-9, AROCLOR 1254, Method: STANDARD PLATE) was “inactive; negative” and the mutagenic call [5] was “inactive; negative”. For the same molecule, the mutagenic call (Test System: AMES SALMONELLA TYPHIMURIUM, Strain/Indicator: TA100, Metabolic Activation: RAT, LIVER, S-9, AROCLOR 1254, Method: STANDARD PLATE) was “inactive; negative”.

`Cc1cc2cccc3ccc4c5ccccc5cc1c4c32` was tested, and the mutagenic call (Test System: AMES SALMONELLA TYPHIMURIUM, Strain/Indicator: TA100, Metabolic Activation: RAT, NADPH-FORTIFIED HOMOGENIZED HEPATOCYTES, AROCLOR 1254, Method: PREINCUBATION) was “active; positive”.

`CCC(=O)N(O)c1ccc(-c2ccccc2)cc1` was tested, and the mutagenic call [1] was “inactive; negative”, the mutagenic call (Test System: AMES SALMONELLA TYPHIMURIUM, Strain/Indicator: TA98, Metabolic Activation: RAT, LIVER, CYTOSOL, Method: PREINCUBATION) was “inactive; negative” and the mutagenic call (Test System: AMES SALMONELLA TYPHIMURIUM, Strain/Indicator: TA98, Metabolic Activation: RAT, LIVER, MICROSOMES, Method: PREINCUBATION) was “active; positive”.

`COc1ccc(-c2noc(CC(=O)O)c2-c2ccc(OC)cc2)cc1` was tested, and the mutagenic call [1] was “inactive; negative”, the mutagenic call (Test System: AMES SALMONELLA TYPHIMURIUM, Strain/Indicator: TA98, Metabolic Activation: RAT, LIVER, S-9, PHENOBARBITAL AND 5,6-BENZOFLAVONE, Method: PREINCUBATION) was “inactive; negative” and the mutagenic call [2] was “inactive; negative”. For the same molecule, the mutagenic call (Test System: AMES SALMONELLA TYPHIMURIUM, Strain/Indicator: TA100, Metabolic Activation: RAT, LIVER, S-9, PHENOBARBITAL AND 5,6-BENZOFLAVONE, Method: PREINCUBATION) was “inactive; negative”, the mutagenic call [3] was “inactive; negative” and the mutagenic call (Test System: AMES SALMONELLA TYPHIMURIUM, Strain/Indicator: TA1535, Metabolic Activation: RAT, LIVER, S-9, PHENOBARBITAL AND 5,6-BENZOFLAVONE, Method: PREINCUBATION) was “inactive; negative”. For the same molecule, the mutagenic call [4] was “inactive; negative”, the mutagenic call (Test System: AMES SALMONELLA TYPHIMURIUM, Strain/Indicator: TA1537, Metabolic Activation: RAT, LIVER, S-9, PHENOBARBITAL AND 5,6-BENZOFLAVONE, Method: PREINCUBATION) was “inactive; negative” and the mutagenic call (Test System: E. COLI, Strain/Indicator: WP2 UVRA, Metabolic Activation: NONE, Method: PREINCUBATION) was “inactive; negative”. For the same molecule, the mutagenic call (Test System: E. COLI, Strain/Indicator: WP2 UVRA, Metabolic Activation: RAT, LIVER, S-9, PHENOBARBITAL AND 5,6-BENZOFLAVONE, Method: PREINCUBATION) was “inactive; negative”.

With `O=C(ON(OCc1ccccc1)C(=O)c1ccccc1)c1ccc([N+](=O)[O-])cc1` the mutagenic call [5] was “active; positive” and the mutagenic call (Test System: AMES SALMONELLA TYPHIMURIUM, Strain/Indicator: TA100, Metabolic Activation: RAT, S-9, AROCLOR, Method: STANDARD PLATE) was “active; positive”.

`Nc1cccc2nc3ccccc3nc12` was tested, and the mutagenic call [1] was “active; positive” and the mutagenic call (Test System: AMES SALMONELLA TYPHIMURIUM, Strain/Indicator: TA98, Metabolic Activation: RAT, LIVER, S-9, PCB, Method: PREINCUBATION) was “inactive; negative”.

In the case of `CC(=O)OCN(CCCCl)N=O`, the mutagenic call (Test System: AMES SALMONELLA TYPHIMURIUM, Strain/Indicator: TA92, Metabolic Activation: NONE, Method: STANDARD PLATE) is reported as “active; positive” and the mutagenic call (Test System: AMES SALMONELLA TYPHIMURIUM, Strain/Indicator: TA1535, Metabolic Activation: NONE, Method: STANDARD PLATE) is reported as “active; positive”.

In the case of `O=NN(c1ccc([N+](=O)[O-])cc1)C1OC[C@H](O)[C@H](O)[C@H]1O` (stereo partly drawn), the mutagenic call [5] is reported as “active; positive”.

In the case of `Nc1cc([N+](=O)[O-])cc([N+](=O)[O-])c1CO`, the mutagenic call (End Point: In vitro chromosomal aberrations, Test System: V79 Chinese hamster fibroblasts, Metabolic Activation: None) is reported as “inactive; negative”, the mutagenic call (Test System: Ames Salmonella typhimurium, Strain/Indicator: TA98, Metabolic Activation: None, Method: Standard plate) is reported as “active; positive” and the mutagenic call (Test System: Ames Salmonella typhimurium, Strain/Indicator: TA98, Metabolic Activation: Rat, Liver, S-9, Method: Standard plate) is reported as “active; positive”. For the same molecule, the mutagenic call (Test System: Ames Salmonella typhimurium, Strain/Indicator: TA98NR, Metabolic Activation: None, Method: Standard plate) was “active; positive”, the mutagenic call (Test System: Ames Salmonella typhimurium, Strain/Indicator: TA100, Metabolic Activation: None, Method: Standard plate) was “active; positive” and the mutagenic call (Test System: Ames Salmonella typhimurium, Strain/Indicator: TA100, Metabolic Activation: Rat, Liver, S-9, Method: Standard plate) was “active; positive”.
